Counter-ions that a name gives are not always drawn. Like-named read-outs stand apart in the source and are kept apart here.
Key:
[1] = rat, in vivo, 30 s, 20 μM, pH 7.4
[2] = biological target: T1, rat κ-opioid receptor (Rattus norvegicus, UniProt P34975); assay: Radioligand binding, κ-opioid receptor ([3H]U69593); details: cloned rat κ-opioid receptors; read-out: geometric mean Ki
T1 construct: expressed in transfected cells; host or cells: CHO cells
Procedure: Competitive inhibition studies were performed on cloned opioid receptors expressed in membranes of Chinese hamster ovary (CHO) cells and conducted in triplicate (n = 3 independent experiments).
Radioligand binding assays were performed to evaluate the ability of these agents to inhibit specific radioligand binding to cloned opioid receptor subtypes. Half-maximal inhibitory concentration (IC50), equilibrium dissociation constant for the inhibitor (Ki), and negative log of the equilibrium dissociation constant for the inhibitor (pKi) values were obtained. The receptor binding methods used for µ ([Zhang et al., 1998])-, δ ([Simonin et al., 1994])-, and κ ([Meng et al., 1993])-opioid receptors have been described previously, with the exception that 100 mM NaCl was added to the incubation buffer in the µ-opioid receptor binding assay. All assays were conducted in 200-µl volume. All assay incubations were terminated by filtration, and bound radioligand was quantitated by liquid scintillation spectrometry. The IC50 values were determined by nonlinear regression analysis of the competition curves generated with the mean of duplicate values using Hill equation curve fitting. The inhibition constants (Ki) were calculated using the Cheng-Prusoff equation. The pKi results from three independent experiments were analyzed for significant differences by one-way analysis of variance (ANOVA) followed by Bonferroni multiple comparison test.

[3] = biological target: T2, human µ-opioid receptor (Homo sapiens, UniProt P35372); assay: Radioligand binding, µ-opioid receptor ([3H]diprenorphine); design: expressed in transfected cells; b18 says CHO cells; details: read-out: geometric mean Ki
[4] = biological target: T2, human µ-opioid receptor; assay: [35S]GTPγS binding, Schild-type antagonism of morphine (CHO-K1 membranes)
[5] = in vitro; details: human
[6] = In situ rat brain perfusion model; details: 30 s perfusion, test compound 20 μM, atenolol 50 μM, antipyrine 5 μM, mean ± S.D.
[7] = system: morphine-induced antinociception; assay: Hot plate model of nociception, antagonism of morphine
[8] = system: morphine-induced inhibition of gastrointestinal transit; assay: Gastrointestinal transit model (charcoal meal), antagonism of morphine

T2 sequence (P35372 whole entry): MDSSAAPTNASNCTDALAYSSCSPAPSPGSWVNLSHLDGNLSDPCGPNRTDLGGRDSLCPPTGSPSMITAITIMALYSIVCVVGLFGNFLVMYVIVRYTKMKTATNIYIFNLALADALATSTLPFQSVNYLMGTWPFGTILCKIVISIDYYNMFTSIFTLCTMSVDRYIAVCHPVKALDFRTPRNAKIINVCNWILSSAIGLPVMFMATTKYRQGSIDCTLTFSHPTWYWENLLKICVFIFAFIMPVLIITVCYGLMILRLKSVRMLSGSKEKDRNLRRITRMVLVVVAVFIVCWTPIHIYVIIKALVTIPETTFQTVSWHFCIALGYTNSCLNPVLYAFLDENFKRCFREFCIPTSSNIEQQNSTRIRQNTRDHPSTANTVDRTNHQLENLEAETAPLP
T1 sequence (P34975 whole entry): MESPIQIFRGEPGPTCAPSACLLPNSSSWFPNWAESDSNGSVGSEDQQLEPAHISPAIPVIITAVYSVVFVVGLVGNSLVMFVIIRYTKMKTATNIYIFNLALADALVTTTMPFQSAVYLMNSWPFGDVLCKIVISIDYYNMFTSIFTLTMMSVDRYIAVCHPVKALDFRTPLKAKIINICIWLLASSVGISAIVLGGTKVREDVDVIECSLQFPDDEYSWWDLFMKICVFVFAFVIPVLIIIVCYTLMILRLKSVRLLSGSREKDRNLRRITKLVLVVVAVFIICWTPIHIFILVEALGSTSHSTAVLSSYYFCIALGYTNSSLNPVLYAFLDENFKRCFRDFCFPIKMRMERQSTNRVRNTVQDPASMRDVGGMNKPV

Cc1cc(=O)n(-c2ccccc2)n1C [Antipyrine, antipyrine]
Brain Uptake [1]: 28.2 ± 14.3 pmol/g brain/s

C[N@+]1(CC2CC2)CC[C@]23c4c5ccc(O)c4O[C@H]2C(=O)CC[C@@]3(O)[C@H]1C5 [Methylnaltrexone, Methylnaltrexone bromide]
Ki [2]: 10.9 nM
Ki [3]: 22.1 nM
Kb [4]: 37 nM
pA2 ([4]; versus morphine, 3 independent experiments): 7.43 ± 0.02
Schild slope ([4]; versus morphine, pooled 3 experiments): –0.982

C=CCN1CC[C@]23c4c5ccc(O)c4O[C@H]2C(=O)CC[C@@]3(O)[C@H]1C5 [Naloxone, naloxone hydrochloride, reference compound]
Papp A→B at 2 h, 10 μM ([5]; Caco-2, pH 7.4, Papp A→B, no P-gp inhibitor, mean of 3 experiments): 27.3 ×10⁻⁶ cm/s
Papp B→A at 2 h, 10 μM ([5]; Caco-2, pH 7.4, Papp B→A, no P-gp inhibitor, mean of 3 experiments): 25 ×10⁻⁶ cm/s
Papp A→B at 2 h, 10 μM ([5]; Caco-2, pH 7.4, with cyclosporin A, Papp A→B, Cyclosporin A): 28.4 ×10⁻⁶ cm/s
Papp B→A at 2 h, 10 μM ([5]; Caco-2, pH 7.4, with cyclosporin A, Papp B→A, Cyclosporin A): 23.7 ×10⁻⁶ cm/s
Papp A→B at 2 h, 10 μM ([5]; Caco-2, pH 7.4, with elacridar, 0.5 μM, Papp A→B, Elacridar): 24.8 ×10⁻⁶ cm/s
Papp B→A at 2 h, 10 μM ([5]; Caco-2, pH 7.4, with elacridar, 0.5 μM, Papp B→A, Elacridar): 27.3 ×10⁻⁶ cm/s
Papp A→B at 2 h, 10 μM ([5]; Caco-2, pH 7.4, with verapamil, 100 μM, Papp A→B, Verapamil): 24.5 ×10⁻⁶ cm/s
Papp B→A at 2 h, 10 μM ([5]; Caco-2, pH 7.4, with verapamil, 100 μM, Papp B→A, Verapamil): 24.9 ×10⁻⁶ cm/s
Brain Uptake [6]: 60.2 ± 13.7 pmol/g brain/s
ED50 ([7]; Rattus norvegicus, po, read-out: ED50, antagonism of morphine analgesia): 1.14 mg/kg
oral dose that completely reversed the analgesic effect of morphine ([7]; hot plate assay, rat): ≥ 10 mg/kg
oral dose that completely reversed the effect of morphine ([8]; GI transit assay, rat): ≥ 10 mg/kg
ED50 ([8]; Rattus norvegicus, read-out: ED50, antagonism of morphine in GI transit): 0.69 mg/kg

Source: article PMC5399635 (The Journal of Pharmacology and Experimental Therapeutics, 2017)
